Laboratory results taken from ChEMBL document CHEMBL1201862, “PubChem BioAssay data set” (2004).
Where “and” joins values, the source holds several entries; their conditions need not be identical. Equal entries are not always repeated.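 1) Cells in 96-well plates. 2) Compound, 48 h, 5 concentrations. 3) Linear interpolation between surrounding doses. 4) Unreached endpoint = highest concentration. GI50 marks 50% less growth.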 Calls of active or inactive are those of the source. Rule as the data show it: active = GI50 up to about 1.1 µM and inactive = higher. Starred links: 1 amine or outer side, 2 acyl side, 3 side chain; linkers in the order of their positions; H or OH if unused. Non-standard residues stand in square brackets, D forms with d. Residues, ends and D or L forms follow the SMILES beside them. *: point of attachment. X47 = CCC(=O)CC1CC(C)CC(C(=O)[*:2])N1[*:1]; X46 = CCCCCCCCC(C)C(=O)*; Aib = CC(C)(N)C(=O)O; X48 = CC(CN(C)CCO)N*

Experiments:
Experiment in all cases: NCI anticancer screen, dose series, 48 h
SK-OV-3 = system: SK-OV-3
UO-31 = system: UO-31
KM12 = system: KM12
SF-539 = system: SF-539
OVCAR-3 = system: OVCAR-3
SW-620 = system: SW-620
U-251 = system: U-251
UACC-62 = system: UACC-62
K562 = system: K562
SK-MEL-2 = system: SK-MEL-2
HCT-116 = system: HCT-116
MOLT-4 = system: MOLT-4
SF-268 = system: SF-268
OVCAR-5 = system: OVCAR-5
M14 = system: M14
HT-29 = system: HT-29
SK-MEL-28 = system: SK-MEL-28
EKVX = system: EKVX
HCT-15 = system: HCT-15
SN12C = system: SN12C

SMILES	GI50 (SK-OV-3)	GI50 (UO-31)	GI50 (KM12)	GI50 (SF-539)	GI50 (OVCAR-3)	GI50 (SW-620)	GI50 (U-251)	GI50 (UACC-62)	GI50 (K562)	GI50 (SK-MEL-2)	GI50 (HCT-116)	GI50 (MOLT-4)	GI50 (SF-268)	GI50 (OVCAR-5)	GI50 (M14)	GI50 (HT-29)	GI50 (SK-MEL-28)	GI50 (EKVX)	GI50 (HCT-15) [µM]	GI50 (SN12C)
CC(=O)OC1COC(N2CCc3ccccc32)C(OC(C)=O)C1OC(C)=O (stereo not given)	> 100 µM (inactive)	> 58.7 µM (inactive)	> 100 µM (inactive)	> 100 µM (inactive)	> 100 µM (inactive)	> 100 µM (inactive)	> 100 µM (inactive)	> 94.6 µM (inactive)	> 100 µM (inactive)	> 100 µM (inactive)	> 100 µM (inactive)	> 100 µM (inactive)	> 100 µM (inactive)	> 100 µM (inactive)	> 100 µM (inactive)	> 100 µM (inactive)	> 100 µM (inactive)	> 100 µM (inactive) and > 57.1 µM (inactive)	> 100	> 100 µM (inactive)
OC1(C(O)(c2ccc(-c3ccccc3)cc2)c2ccc(-c3ccccc3)cc2)CCCCC1	> 100 µM (inactive)	> 100 µM (inactive)	> 100 µM (inactive)	> 100 µM (inactive)	> 100 µM (inactive)	> 100 µM (inactive)	> 100 µM (inactive)	> 100 µM (inactive)	> 100 µM (inactive)	> 100 µM (inactive)	> 100 µM (inactive)	23.9 µM (inactive)	> 100 µM (inactive)	> 100 µM (inactive)	> 100 µM (inactive)	87.9 µM (inactive)	> 100 µM (inactive)	> 100 µM (inactive)	23	> 100 µM (inactive)
CCCCCCCCCCCCCCCCCCNc1ccn(C2OC(COP(=O)(O)OCC3OC(n4ccc(N)nc4=O)C(O)C3O)C(O)C2O)c(=O)n1 (stereo not given)	> 86.9 µM (inactive)	42.4 µM (inactive)	> 89.1 µM (inactive)	> 100 µM (inactive)	> 100 µM (inactive)	> 89.7 µM (inactive)	57.8 µM (inactive)	> 93.3 µM (inactive)	65.8 µM (inactive)	> 100 µM (inactive)	18.8 µM (inactive)	2.45 µM (inactive)	63.8 µM (inactive)	98.6 µM (inactive)	32 µM (inactive)	37.7 µM (inactive)	> 92 µM (inactive)	> 100 µM (inactive)	55.6	65 µM (inactive)
Oc1ccc(/C=N/c2ccccc2O)cc1	> 100 µM (inactive)	25.9 µM (inactive)	75.3 µM (inactive)	71.3 µM (inactive)	40 µM (inactive)	31.3 µM (inactive)	31.3 µM (inactive)	37.5 µM (inactive)	24.7 µM (inactive)	21.9 µM (inactive)	50.1 µM (inactive)	51.2 µM (inactive)	96.6 µM (inactive)	> 100 µM (inactive)	35.5 µM (inactive)	69 µM (inactive)	> 100 µM (inactive)	48 µM (inactive)	21.3	> 100 µM (inactive)
CC(=O)O[C@H]1CCC2[C@@H]3CCC4=C(O)C(=O)C(C#N)C[C@]4(C)C3CC[C@@]21C (stereo not given in full)	29.4 µM (inactive)	13.7 µM (inactive)	35.7 µM (inactive)	50.8 µM (inactive)	38.6 µM (inactive)	47.1 µM (inactive)	47.8 µM (inactive)	15.5 µM (inactive)	24.8 µM (inactive)	35 µM (inactive)	29.5 µM (inactive)	30.5 µM (inactive)	24.4 µM (inactive)	75.9 µM (inactive)	34 µM (inactive)	42.5 µM (inactive)	46.7 µM (inactive)	41.7 µM (inactive)	30	33.5 µM (inactive)
CCOP(C)(=O)C(Cc1c[nH]c2ccccc12)C(=O)O (stereo not given)	> 100 µM (inactive)	> 100 µM (inactive)	> 100 µM (inactive)	> 100 µM (inactive)	> 100 µM (inactive)	> 100 µM (inactive)	> 100 µM (inactive)	> 100 µM (inactive)	> 100 µM (inactive)	> 100 µM (inactive)	> 100 µM (inactive)	> 100 µM (inactive)	> 100 µM (inactive)	> 100 µM (inactive)	> 100 µM (inactive)	> 100 µM (inactive)	> 100 µM (inactive)	> 100 µM (inactive)	> 100	> 100 µM (inactive)
c1ccc(-c2ccc(-c3ccc(C4=NCCN4)cc3)o2)cc1	5.36 µM (inactive)	1.71 µM (inactive)	1.92 µM (inactive)	2.11 µM (inactive)	5.5 µM (inactive)	2 µM (inactive)	1.92 µM (inactive)	1.77 µM (inactive)	1.42 µM (inactive)	1.87 µM (inactive)	1.77 µM (inactive)	1.82 µM (inactive)	2.8 µM (inactive)	2.69 µM (inactive)	1.68 µM (inactive)	1.77 µM (inactive)	1.8 µM (inactive)	3.37 µM (inactive)	1.87	2.99 µM (inactive)
O=C1C2C3CC(C4C5C=CC(C5)C34)C2C2C3CC(C12)C1C2C=CC(C2)C31 (stereo not given)	> 100 µM (inactive)	> 100 µM (inactive)	> 100 µM (inactive)	> 100 µM (inactive)	> 100 µM (inactive)	20.8 µM (inactive)	> 100 µM (inactive)	> 100 µM (inactive)	> 100 µM (inactive)	> 100 µM (inactive)	> 100 µM (inactive)	> 100 µM (inactive)	90.8 µM (inactive)	> 100 µM (inactive)	> 100 µM (inactive)	> 100 µM (inactive)	> 100 µM (inactive)	> 100 µM (inactive)	> 100	> 100 µM (inactive)
CO[C@H]1C[C@H](O[C@H]2CC[C@@]3(C)[C@H](CC[C@@H]4[C@@H]3CC[C@]3(C)[C@@H](C5=CC(=O)OC5)CC[C@]43O)C2)O[C@H](C)[C@H]1O	< 0.0113 µM (active)	< 0.01 µM (active)	< 0.011 µM (active)	< 0.01 µM (active)	< 0.01 µM (active)	< 0.01 µM (active)	< 0.01 µM (active)	< 0.0125 µM (active)	< 0.01 µM (active)	0.0151 µM (active)	< 0.01 µM (active)	< 0.01 µM (active)	< 0.01 µM (active)	< 0.0149 µM (active)	0.0168 µM (active)	< 0.01 µM (active)	0.024 µM (active)	< 0.01 µM (active)	< 0.01	< 0.01 µM (active)
COc1cc(CN[C@H]2CCc3cc(OC)c(OC)c(OC)c3-c3ccc(SC)c(=O)cc32)cc(OC)c1	0.0284 µM (active)	0.0938 µM (active)	0.0385 µM (active)	0.0206 µM (active)	0.0334 µM (active)	0.0347 µM (active)	0.0324 µM (active)	0.0238 µM (active)	0.0317 µM (active)	0.0463 µM (active)	0.0399 µM (active)	0.452 µM (active)	0.043 µM (active)	0.0499 µM (active)	0.0322 µM (active)	0.0249 µM (active)	0.0386 µM (active)	0.0828 µM (active)	0.0483	0.0367 µM (active)
CSc1ccc2c(cc1=O)[C@@H](NC(=O)c1cccc([N+](=O)[O-])c1)CCc1cc(O)c(O)c(O)c1-2	42.4 µM (inactive)	> 100 µM (inactive)	31.2 µM (inactive)	26.2 µM (inactive)	35.5 µM (inactive)	23.5 µM (inactive)	22.8 µM (inactive)	18.3 µM (inactive)	26.6 µM (inactive)	34.8 µM (inactive)	20 µM (inactive)	21.6 µM (inactive)	57.9 µM (inactive)	> 100 µM (inactive)	25.3 µM (inactive)	37.8 µM (inactive)	> 100 µM (inactive)	50.9 µM (inactive)	36.3	27.3 µM (inactive)
O=C(CCc1cccc(O)c1)NCCCNC(=O)CCc1cccc(O)c1	> 100 µM (inactive)	> 100 µM (inactive)	> 100 µM (inactive)	> 100 µM (inactive)	> 100 µM (inactive)	> 100 µM (inactive)	> 100 µM (inactive)	> 100 µM (inactive)	> 100 µM (inactive)	> 100 µM (inactive)	> 100 µM (inactive)	> 100 µM (inactive)	> 100 µM (inactive)	> 100 µM (inactive)	> 100 µM (inactive)	> 100 µM (inactive)	> 100 µM (inactive)	> 100 µM (inactive)	> 100	> 100 µM (inactive)
CCCCCCCCC(C)C(=O)N1CCCC1C(=O)N1C(CC(=O)CC)CC(C)CC1C(=O)NC(C)C(=O)NC(C)(C)C(=O)NC(C)(C)C(=O)NC(C(=O)NC(C)C(=O)NC(C)(C)C(=O)NC(C)(C)C(=O)NC(C)CN(C)CCO)C(C)CC (stereo not given) (X46-P[X47]A[Aib][Aib]IA[Aib][Aib]-X48; configuration not given here)	1.19 µM (inactive)	0.124 µM (active)	0.142 µM (active)	0.211 µM (active)	< 0.01 µM (active)	0.0794 µM (active)	< 0.0498 µM (active)	1.89 µM (inactive)	< 0.01 µM (active)	0.369 µM (active)	0.0299 µM (active)	0.08 µM (active)	0.581 µM (active)	0.889 µM (active)	0.593 µM (active)	0.0261 µM (active)	2.89 µM (inactive)	< 0.01 µM (active)	0.406	0.115 µM (active)
